Usually IC50 stands for the concentration that gives 50% inhibition. High values mean lower potency, low ones higher potency.

≈ marks a conversion by molar mass, not a printed value.

Drawing on ChEMBL document CHEMBL4725357, “Elucidating the Structural Requirement of Uridylpeptide Antibiotics for Antibacterial Activity” (J Med Chem, 2020), this text covers IC50, MIC and Ratio for 3 molecules.

The nature of data set [1]: Inhibition of Staphylococcus aureus MraY using UDPMurNAc-dansylpentapeptide as substrate incubated for 3 hrs by fluorescence method.
Data set [2] has as its system Pseudomonas aeruginosa. Briefly: Antibacterial activity against Pseudomonas aeruginosa incubated for 18 hrs by CLSI based broth microdilution method. Type of data set: functional. In general terms: In broth dilution the organism is exposed to a series of concentrations in liquid medium.
Data set [3] relates to Pseudomonas aeruginosa. Put plainly: Antibacterial activity against Pseudomonas aeruginosa serotype D IID1004 incubated for 18 hrs by CLSI based broth microdilution method. It is filed as functional.
The nature of data set [4]: Substrate activity at NppA1A2BCD assessed as antibacterial activity against mureidomycin-resistant Pseudomonas aeruginosa PAO1 harboring NppA1A2BCD mutant measured at day 1 post mureidomycin-challenge. Type of data set: ADME.
Data set [5] relates to Pseudomonas aeruginosa. Put plainly: Antibacterial activity against Pseudomonas aeruginosa serotype B IID1007 incubated for 18 hrs by CLSI based broth microdilution method. Type of data set: functional.
Data set [6] relates to Pseudomonas aeruginosa. Briefly: Antibacterial activity against Pseudomonas aeruginosa ATCC 27853 incubated for 18 hrs by CLSI based broth microdilution method. Type of data set: functional.
The test system of data set [7] is HepG2. Put plainly: Cytotoxicity against human HepG2 cells after 24 hrs by CCK-8 assay. Type of data set: cell-based. The note with it: HepG2, 24 h.
Data set [8] concerns Pseudomonas aeruginosa. Put plainly: Antibacterial activity against Pseudomonas aeruginosa isolate 2867 incubated for 18 hrs by CLSI based broth microdilution method. Type of data set: functional.
Data set [9] has as its system Pseudomonas aeruginosa. Briefly: Antibacterial activity against Pseudomonas aeruginosa isolate 2931 incubated for 18 hrs by CLSI based broth microdilution method. It is filed as functional.
Data set [10] deals with Pseudomonas aeruginosa. Put plainly: Antibacterial activity against Pseudomonas aeruginosa serotype H IID1009 incubated for 18 hrs by CLSI based broth microdilution method. It is filed as functional.
The test system of data set [11] is Pseudomonas aeruginosa. Briefly: Antibacterial activity against multidrug-resistant Pseudomonas aeruginosa MDRP62 incubated for 18 hrs by CLSI based broth microdilution method. Type of data set: functional.
Data set [12] relates to Pseudomonas aeruginosa. Put plainly: Resistance index, ratio of MIC for Pseudomonas aeruginosa PAO1 incubated overnight to MIC for Pseudomonas aeruginosa PAO1 incubated for 18 hrs. Type of data set: functional.
The subject of data set [13] is Pseudomonas aeruginosa. Briefly: Antibacterial activity against Pseudomonas aeruginosa serotype E IID1130 incubated for 18 hrs by CLSI based broth microdilution method. It is filed as functional.
Data set [14] deals with Pseudomonas aeruginosa. Briefly: Antibacterial activity against Pseudomonas aeruginosa serotype F IID1006 incubated for 18 hrs by CLSI based broth microdilution method. Type of data set: functional.
The test system of data set [15] is Pseudomonas aeruginosa. Briefly: Antibacterial activity against Pseudomonas aeruginosa serotype B IID1002 incubated for 18 hrs by CLSI based broth microdilution method. It is filed as functional.
Data set [16] concerns Pseudomonas aeruginosa. Put plainly: Antibacterial activity against Pseudomonas aeruginosa serotype C IID1021 incubated for 18 hrs by CLSI based broth microdilution method. Type of data set: functional.
The subject of data set [17] is Pseudomonas aeruginosa. Briefly: Antibacterial activity against Pseudomonas aeruginosa serotype G IID1020 incubated for 18 hrs by CLSI based broth microdilution method. Type of data set: functional.
Data set [18] can be described thus: Substrate activity at NppA1A2BCD assessed as antibacterial activity against Pseudomonas aeruginosa PAO1 PW4181. Type of data set: ADME. The note with it: pseudomonas aeruginosa pao1, 720 h; time 30 day.
The test system of data set [19] is Pseudomonas aeruginosa. Briefly: Antibacterial activity against Pseudomonas aeruginosa isolate 1483 incubated for 18 hrs by CLSI based broth microdilution method. It is filed as functional.
The nature of data set [20]: Substrate activity at NppA1A2BCD assessed as antibacterial activity against mureidomycin-resistant Pseudomonas aeruginosa PAO1 harboring NppA1A2BCD mutant measured at day 2 post mureidomycin-challenge. Type of data set: ADME.
The subject of data set [21] is Pseudomonas aeruginosa. Briefly: Antibacterial activity against Pseudomonas aeruginosa serotype M IID5018 incubated for 18 hrs by CLSI based broth microdilution method. It is filed as functional.
In data set [22] the test system is Pseudomonas aeruginosa. Briefly: Antibacterial activity against Pseudomonas aeruginosa PAO1 incubated for 18 hrs by CLSI based broth microdilution method. Type of data set: functional.
Data set [23] has as its system Pseudomonas aeruginosa. Briefly: Antibacterial activity against Pseudomonas aeruginosa serotype I IID1010 incubated for 18 hrs by CLSI based broth microdilution method. It is filed as functional.
The nature of data set [24]: Substrate activity at NppA1A2BCD assessed as antibacterial activity against mureidomycin-resistant Pseudomonas aeruginosa PAO1 harboring NppA1A2BCD mutant measured at day 30 post mureidomycin-challenge. It is filed as ADME.
Data set [25] relates to Pseudomonas aeruginosa. Briefly: Antibacterial activity against Pseudomonas aeruginosa serotype K IID1012 incubated for 18 hrs by CLSI based broth microdilution method. It is filed as functional.
Data set [26] has as its system Pseudomonas aeruginosa. Put plainly: Antibacterial activity against Pseudomonas aeruginosa isolate 1485 incubated for 18 hrs by CLSI based broth microdilution method. Type of data set: functional.
Data set [27] relates to Pseudomonas aeruginosa. Briefly: Antibacterial activity against Pseudomonas aeruginosa serotype J IID1011 incubated for 18 hrs by CLSI based broth microdilution method. Type of data set: functional.
For data set [28], the system named is Pseudomonas aeruginosa. Put plainly: Antibacterial activity against Pseudomonas aeruginosa serotype L IID5141 incubated for 18 hrs by CLSI based broth microdilution method. Type of data set: functional.
Data set [29] is described as follows: Substrate activity at NppA1A2BCD assessed as antibacterial activity against Pseudomonas aeruginosa PAO1 PW4182. It is filed as ADME. The note with it: pseudomonas aeruginosa pao1, 720 h; time 30 day.
Data set [30] has as its system Pseudomonas aeruginosa. Put plainly: Antibacterial activity against Pseudomonas aeruginosa serotype B IID1013 incubated for 18 hrs by CLSI based broth microdilution method. It is filed as functional.
Data set [31] deals with Pseudomonas aeruginosa. Put plainly: Antibacterial activity against Pseudomonas aeruginosa serotype M IID1015 incubated for 18 hrs by CLSI based broth microdilution method. Type of data set: functional.
In data set [32] the test system is Pseudomonas aeruginosa. Briefly: Antibacterial activity against Pseudomonas aeruginosa isolate 9728b incubated for 18 hrs by CLSI based broth microdilution method. Type of data set: functional.
For data set [33], the system named is Pseudomonas aeruginosa. Briefly: Antibacterial activity against Pseudomonas aeruginosa serotype B IID5004 incubated for 18 hrs by CLSI based broth microdilution method. It is filed as functional.
For data set [34], the system named is Pseudomonas aeruginosa. Briefly: Antibacterial activity against Pseudomonas aeruginosa serotype A IID1001 incubated for 18 hrs by CLSI based broth microdilution method. Type of data set: functional.
Data set [35] in a line: Inhibition of Staphylococcus aureus MraY using UDPMurNAc-dansylpentapeptide as substrate incubated for 3 to 4 hrs by fluorescence method.

`C[C@@H]([C@H](NC(=O)[C@H](CC[S+](C)[O-])NC(=O)N[C@@H](Cc1cccc(O)c1)C(=O)O)C(=O)N/C=C1\O[C@@H](n2ccc(=O)[nH]c2=O)[C@H](O)[C@@H]1O)N(C)C(=O)[C@@H](N)Cc1cccc(O)c1` (stereo partly drawn): the IC50 in data set [1] came to 4.7 nM. This molecule came in with an MIC in data set [2] of 32 µg/mL (≈ 36.7 µM).

Turning to `CSCC[C@H](NC(=O)N[C@@H](Cc1cccc(O)c1)C(=O)O)C(=O)N[C@H](C(=O)N/C=C1\O[C@@H](n2ccc(=O)[nH]c2=O)[C@H](O)[C@@H]1O)[C@H](C)N(C)C(=O)[C@@H](N)Cc1cccc(O)c1`, the MIC is 8 µg/mL (≈ 9.34 µM) in data set [3]; more than 64 µg/mL in [4]; 32 µg/mL (≈ 37.3 µM) in data set [5]; 4 µg/mL (≈ 4.67 µM) in data set [6]; 8 µg/mL (≈ 9.34 µM) in data set [8]; 16 µg/mL (≈ 18.7 µM) in data set [9]. In addition, the MIC in data set [10] was 8 µg/mL (≈ 9.34 µM); in [11], 16 µg/mL (≈ 18.7 µM); in [13] it was 16 µg/mL (≈ 18.7 µM); in [14], more than 128 µg/mL; in [15] it was 16 µg/mL (≈ 18.7 µM); in [16] it was 8 µg/mL (≈ 9.34 µM). For the same molecule, the MIC was 8 µg/mL (≈ 9.34 µM) in data set [17]; more than 128 µg/mL in data set [18]; 8 µg/mL (≈ 9.34 µM) in [19]; more than 64 µg/mL in data set [20]; more than 128 µg/mL in data set [21]; 4 µg/mL (≈ 4.67 µM) in [22]. For the same molecule, the MIC in data set [23] is 32 µg/mL (≈ 37.3 µM); in data set [24], more than 64 µg/mL; in data set [25], 16 µg/mL (≈ 18.7 µM); in [26], 4 µg/mL (≈ 4.67 µM); in data set [27] it was 16 µg/mL (≈ 18.7 µM); in data set [28], 4 µg/mL (≈ 4.67 µM). The MIC is more than 128 µg/mL in [29]; more than 128 µg/mL in data set [30]; 16 µg/mL (≈ 18.7 µM) in data set [31]; 32 µg/mL (≈ 37.3 µM) in [32]; 8 µg/mL (≈ 9.34 µM) in [33]; 64 µg/mL (≈ 74.7 µM) in data set [34]. Further, the IC50 was 1.3 nM in data set [1] and more than 100000 nM in data set [7]. Moreover, in data set [12], the Ratio was found to be 8.

`C[C@H](N)C(=O)N(C)[C@@H](C)[C@H](NC(=O)[C@H](C)NC(=O)N[C@@H](Cc1c[nH]c2ccccc12)C(=O)O)C(=O)N/C=C1\O[C@@H](n2ccc(=O)[nH]c2=O)[C@H](O)[C@@H]1O`: the MIC in data set [3] was more than 128 µg/mL; in [5], more than 128 µg/mL; in data set [6], 32 µg/mL (≈ 44 µM); in data set [8] it was 32 µg/mL (≈ 44 µM); in data set [9] it was more than 128 µg/mL; in data set [10], 32 µg/mL (≈ 44 µM). Further, the MIC in [11] was more than 128 µg/mL; in data set [13] it was more than 128 µg/mL; in [14], more than 128 µg/mL; in data set [15], more than 128 µg/mL; in [16], 16 µg/mL (≈ 22 µM); in data set [17], more than 128 µg/mL. In addition, the MIC in data set [19] is more than 128 µg/mL; in data set [21] it was more than 128 µg/mL; in data set [22], 16 µg/mL (≈ 22 µM); in data set [23], more than 128 µg/mL; in data set [25] it was 64 µg/mL (≈ 87.9 µM); in [26] it was 16 µg/mL (≈ 22 µM). In addition, the MIC is more than 128 µg/mL in [27]; 32 µg/mL (≈ 44 µM) in data set [28]; more than 128 µg/mL in data set [30]; more than 128 µg/mL in data set [31]; more than 128 µg/mL in data set [32]; 64 µg/mL (≈ 87.9 µM) in data set [33]. Moreover, the MIC in data set [34] was more than 128 µg/mL. In addition, the IC50 in data set [1] was 44 nM; in [7] it was more than 100000 nM; in data set [35] it was 42 nM.
